Key:
[1] = system: Botrytis cinerea; assay: In vivo preventive test on Botrytis cinerea (grey mould), gherkin plants; conditions: 500 ppm of active ingredient, preventive spray, grading 4 to 5 days after contamination
Method: (§1) The active ingredients tested are prepared by homogenization in a mixture of acetone/tween/DMSO and then diluted with water to obtain the desired active material concentration.
Gherkin plants (“Vert petit de Paris” variety), sown in starter cups on a 50/50 peat soil pozzolana substrate and grown at 24° C., are treated at the Z11 cotyledon stage by spraying with the active ingredient prepared as described above. Plants, used as controls, are treated with the mixture of acetone/tween/DMSO/water not containing the active material.
After 24 hours, the plants are contaminated by spraying the cotyledons with an aqueous suspension of cryopreserved Botrytis cinerea spores (50 000 spores per mL). The spores are suspended in a nutrient solution composed of 10 g/L of PDB, 50 g/L of D-Fructose, 2 g/L of NH4NO3 and 1 g/L of KH2PO4. The contaminated gherkin plants are incubated at 17° C. and at 90% relative humidity.
Grading (% of efficacy) is carried out 4 to 5 days after the contamination, in comparison with the control plants.
Under these conditions, good (at least 70%) to total protection is observed at a dose of 500 ppm of active ingredient with the following compounds from table F: […]

[2] = system: Uromyces appendiculatus; assay: In vivo preventive test on Uromyces appendiculatus (bean rust); conditions: bean plants
Method: (§2) The active ingredients tested are prepared by homogenization in a mixture of acetone/tween/DMSO, and then diluted with water to obtain the desired active material concentration.
(§3) After 24 hours, the plants are contaminated by spraying the leaves with an aqueous suspension of Uromyces appendiculatus spores (150 000 spores per mL). The spores are collected from infected plants and are suspended in water containing 2.5 mL/L of Tween 80 at 10%. The contaminated bean plants are incubated for 24 hours at 20° C. and at 100% relative humidity, and then for 10 days at 20° C. and at 70-80% relative humidity.
Grading (% of efficacy) is carried out 11 days after the contamination, in comparison with the control plants.

[3] = log P by HPLC on a reversed-phase column (C 18), EEC Directive 79/831 Annex V.A8; assay type: physicochemical; conditions: Table 1, HPLC C 18, 40° C., 0.1% aqueous formic acid and acetonitrile, several values = mixture of 2 or more isomers; for chromatographic logP: reversed-phase HPLC column (C 18)
Method: In table 1, the log P values were determined in accordance with EEC Directive 79/831 Annex V.A8 by HPLC (High Performance Liquid Chromatography) on a reversed-phase column (C 18), using the method described below:
Temperature: 40° C.; Mobile phases: 0.1% aqueous formic acid and acetonitrile; linear gradient from 10% acetonitrile to 90% acetonitrile.
Calibration was carried out using unbranched alkan-2-ones (comprising 3 to 16 carbon atoms) with known log P values (determination of the log P values by the retention times using linear interpolation between two successive alkanones). lambda-max-values were determined using UV-spectra from 200 nm to 400 nm and the peak values of the chromatographic signals.

[4] = system: Puccinia recondita; assay: In vivo preventive test on Puccinia recondita (brown rust on wheat); conditions: 500 ppm of active ingredient; wheat plants, preventive spray; grading 12 days after contamination
Method: as §2
(§4) Wheat plants (“Scipion” variety), sown in starter cups on a 50/50 peat soil pozzolana substrate and grown at 22° C., are treated at the 1 leaf stage (10 cm height) by spraying with the active ingredient prepared as described above. Plants, used as controls, are treated with the mixture of acetone/tween/DMSO/water not containing the active material.
as §3, with “of Puccinia recondita” for “of Uromyces appendiculatus”, “spores (100” for “spores (150”, “from an” for “from”, “infected plant” for “infected plants”, “contaminated wheat” for “contaminated bean”
(§5) Grading (% of efficacy) is carried out 12 days after the contamination, in comparison with the control plants.
Under these conditions, good (at least 70%) to total protection is observed at a dose of 500 ppm of active ingredient with the following compounds from table I: […]

[5] = system: Septoria tritici; assay: In vivo preventive test on Septoria tritici (wheat); conditions: 500 ppm of active ingredient; wheat plants, preventive spray; grading 24 days after contamination
Method: as §2, §4
After 24 hours, the plants are contaminated by spraying the leaves with an aqueous suspension of cryopreserved Septoria tritici spores (500 000 spores per mL). The contaminated wheat plants are incubated for 72 hours at 18° C. and at 100% relative humidity, and then for 21 days at 90% relative humidity.
Grading (% of efficacy) is carried out 24 days after the contamination, in comparison with the control plants.
Under these conditions, good (at least 70%) to total protection is observed at a dose of 500 ppm of active ingredient with the following compounds from table J: […]

[6] = system: Sphaerotheca fuliginea; assay: In vivo preventive test on Sphaerotheca fuliginea (powdery mildew on cucurbits); conditions: 500 ppm, gherkin plants, grading 12 days after contamination
Method: as §1
Gherkin plants (“Vert petit de Paris” variety), sown in starter cups on a 50/50 peat soil-pozzolana substrate and grown at 24° C., are treated at the Z11 cotyledon stage by spraying with the active ingredient prepared as described above. Plants, used as controls, are treated with the mixture of acetone/tween/DMSO/water not containing the active material.
After 24 hours, the plants are contaminated by spraying the cotyledons with an aqueous suspension of Sphaerotheca fuliginea spores (100 000 spores per mL). The spores are collected from infected plants. The contaminated gherkin plants are incubated at about 20° C. and at 70-80% relative humidity.
as §5
Under these conditions, good (at least 70%) to total protection is observed at a dose of 500 ppm of active ingredient with the following compounds from table A: […]

[7] = system: Alternaria brassicae; assay: In vivo preventive test on Alternaria brassicae (leaf spot on radish); conditions: radish plants
Method: as §2
Radish plants (“Pernod Clair” variety), sown in starter cups on a 50/50 peat soil pozzolana substrate and grown at 17° C., are treated at the cotyledon stage by spraying with the active ingredient prepared as described above. Plants, used as controls, are treated with the mixture of acetone/tween/DMSO/water not containing the active material.
After 24 hours, the plants are contaminated by spraying the cotyledons with an aqueous suspension of Alternaria brassicae spores (50 000 spores per mL). The spores are collected from a 15-day-old culture.
The contaminated radish plants are incubated at 20° C. and at 100% relative humidity.
Grading (% of efficacy) is carried out 6 days after the contamination, in comparison with the control plants.
Under these conditions, high (at least 80%) to excellent (at least 90%) protection is observed at a dose of 500 ppm of active ingredient with the following compounds from table C1: […]

[8] = system: Pyrenophora teres; assay: In vivo preventive test on Pyrenophora teres (barley); conditions: barley plants, grading 14 days after contamination
Method: as §2
Barley plants (“Plaisant” variety), sown in starter cups on a 50/50 peat soil pozzolana substrate and grown at 22° C., are treated at the 1 leaf stage (10 cm height) by spraying with the active ingredient prepared as described above. Plants, used as controls, are treated with the mixture of acetone/tween/DMSO/water not containing the active material.
After 24 hours, the plants are contaminated by spraying the leaves with an aqueous suspension of Pyrenophora teres spores (12 000 spores per mL). The spores are collected from a 12-day-old culture.
The contaminated barley plants are incubated for 48 hours at 20° C. and at 100% relative humidity, and then for 12 days at 20° C. at 70-80% relative humidity.
Grading (% of efficacy) is carried out 14 days after the contamination, in comparison with the control plants.
Under these conditions, good (at least 70%) to total protection is observed at a dose of 500 ppm of active ingredient with the following compounds from table H1: […]

[9] = 500 ppm of active ingredient, preventive spray, grading 11 days after contamination (table K1)
[10] = dose 100 ppm, comparison with saturated analogues (table K2)
[11] = dose 500 ppm, comparison with saturated analogues (table K2)
[12] = 500 ppm of active ingredient, preventive spray

chromatographic logP [3]	SMILES	Efficacy [1]	Efficacy [2, 9]	Efficacy [2, 10]	Efficacy [2, 11]	logP [3]	Efficacy [4]	Efficacy [5]	Efficacy [6]	Efficacy ([7]; Table C1, 500 ppm, grading 6 days after contamination)	Efficacy ([7]; Table C2, dose 100 ppm, 6 days after contamination)	Efficacy ([7]; Table C2, dose 100 ppm, 6 days after contamination, listed as 1.32)	Efficacy ([7]; Table C2, dose 500 ppm, 6 days after contamination)	Efficacy ([7]; Table C2, dose 500 ppm, 6 days after contamination, listed as 1.32)	Efficacy [8, 12]	Efficacy ([8]; Table H2, 100 ppm, preventive)
–	Cn1cc(C(=O)N(Cc2ccccc2C2=CCCCC2)C2CC2)c(C(F)F)n1 [I.27]	100%	98%	24%	98%	3.99	88%	94%	98%	–	–	–	–	–	–	–
4.69	Cn1nc(C(F)F)c(C(=O)N(Cc2cc(F)ccc2C2=CCCCC2)C2CC2)c1Cl [I.44, 5-chloro-N-[2-(cyclohex-1-en-1-yl)-5-fluorobenzyl]-N-cyclopropyl-3-(difluoromethyl)-1-methyl-1H-pyrazole-4-carboxamide]	–	–	–	–	–	81%	79%	–	–	–	–	–	–	–	–
–	CC1CC=C(c2ccc(Cl)cc2CN(C(=O)c2c(C(F)F)nn(C)c2F)C2CC2)CC1 (racemic) [I.46]	–	–	–	–	5.36	75%	86%	100%	–	–	–	–	–	–	–
–	CC(c1ccccc1C1=CCCCC1)N(C(=O)c1c(C(F)F)nn(C)c1F)C1CC1 (racemic) [I.32]	–	–	–	–	4.61	98%	100%	100%	98%	98%	at least 95%	98%	at least 95%	97%	–
–	Cn1nc(C(F)F)c(C(=O)N(Cc2ccccc2C2=CCCCCC2)C2CC2)c1F [I.53]	100%	100%	–	–	4.85	98%	100%	100%	–	–	–	–	–	79%	–
–	Cn1nc(C(F)F)c(C(=O)N(Cc2cc(C3=CCCC3)ccc2C2=CCCC2)C2CC2)c1F [I.18]	100%	–	–	–	5.62	–	–	–	–	–	–	–	–	–	–
–	Cn1nc(C(F)F)c(C(=S)N(Cc2cc(Cl)ccc2C2=CCCCC2)C2CC2)c1F [I.43]	–	89%	–	–	5.56	78%	97%	80%	–	–	–	–	–	71%	–
–	Cn1cc(C(=O)N(Cc2ccccc2C2=CCCC2)C2CC2)c(C(F)F)n1 [I.2]	100%	100%	–	–	3.63	94%	88%	94%	–	–	–	–	–	–	–
–	Cn1cc(C(=O)N(Cc2ccccc2C2=CCCCC2)C2CC2)c(C(F)F)c1 [I.30]	81%	78%	–	–	4.46	–	–	83%	–	–	–	–	–	–	–
–	Cn1nc(C(F)F)c(C(=O)N(Cc2ccccc2C2=CCCC2)C2CC2)c1Cl [I.4]	77%	99%	–	–	4.26	100%	–	–	–	–	–	–	–	–	–
–	Cn1nc(C(F)F)c(C(=O)N(Cc2ccccc2C2=CCCCC2)C2CC2)c1F [I.28]	100%	100%	98%	100%	4.49	100%	94%	100%	–	–	–	–	–	79%	–
–	Cn1cc(C(=O)N(Cc2ccccc2C2=CCCCCC2)C2CC2)c(C(F)F)c1 [I.50]	98%	99%	–	–	4.93	81%	100%	100%	–	–	–	–	–	–	–
–	O=C(c1ccsc1I)N(Cc1ccccc1C1=CCCCC1)C1CC1 [I.31]	100%	–	–	–	5.22	–	–	–	–	–	–	–	–	–	–
4.34	CC(c1cc(F)ccc1C1=CCCC1)N(C(=O)c1c(C(F)F)nn(C)c1F)C1CC1 (stereo not drawn) [I.25, N-{1-[2-(cyclopent-1-en-1-yl)-5-fluorophenyl]ethyl}-N-cyclopropyl-3-(difluoromethyl)-5-fluoro-1-methyl-1H-pyrazole-4-carboxamide]	100%	–	–	–	–	–	100%	100%	–	–	–	–	–	100%	–
–	Cn1cc(C(=O)N(Cc2ccccc2C2=CCCCCC2)C2CC2)c(C(F)F)n1 [I.49]	100%	99%	–	–	4.44	81%	88%	100%	–	–	–	–	–	79%	–
–	Cn1nc(C(F)F)c(C(=O)N(Cc2ccccc2C2=CCCCCC2)C2CC2)c1Cl [I.51]	–	96%	–	–	5.06	88%	81%	83%	–	–	–	–	–	–	–
–	Cn1nc(C(F)F)c(C(=O)N(Cc2ccccc2C2=CCCC2)C2CC2)c1F [I.3]	–	100%	99%	100%	4.06	98%	98%	100%	–	–	–	–	–	–	86%

Reference: US9540314B2, “N-cycloalkyl-N-[(cycloalkenylphenyl)methylene]-(thio) carboxamide derivatives” (BAYER INTELLECTUAL PROPERTY GMBH, priority 2012, dated 2017)
